# Test results from patent US20190314353A1, “Pharmaceutical Compositions Comprising Alpelisib” (Novartis AG, priority 2014, published 2019).
# Tests used:
# [1] = tested on: advanced solid malignancies carrying an alteration in the PIK3CA gene; experiment: Phase I clinical trial, single agent treatment, radiologic response (RECIST 1.0); type: in vivo, human; details: out of 131 patients evaluable for radiologic response, as of Mar. 10, 2014
# From the text: (§1) (hereinafter, “Compound I”). […] As of Mar.
# [2] = tested on: PIK3CA-mutant or amplified tumor xenograft models; experiment: In vivo antitumor activity in tumor xenograft models; details: xenograft models such as breast, head and neck, and ovarian cancers
# From the text: as §1
compound,measurement,setting,value
"Cc1nc(NC(=O)N2CCC[C@H]2C(N)=O)sc1-c1ccnc(C(C)(C)C(F)(F)F)c1 [Compound I, (S)-Pyrrolidine-1,2-dicarboxylic acid 2-amide 1-({4-methyl-5-[2-(2,2,2-trifluoro-1,1-dimethyl-ethyl)-pyridin-4-yl]-thiazol-2-yl}-amide)]",patients with partial response to treatment,[1]; PIK3CA-altered solid tumors,15 patients
same,patients with stable disease,[1],68 patients
same,in vivo antitumor activity,[2],dose-dependent antitumor activity
